Patent US20040259864A1, “Substituted pyrimidinone derivatives as ligands of integrin receptors” (priority 2001, published 2004)

Biological target: T1, integrin αvβ3 (Homo sapiens, UniProt P05106+P06756)
T1 construct: from tissue; host or cells: human placenta
Assay: Integrin αvβ3 assay (competition with vitronectin for binding to solid-phase integrin αvβ3)
Settings: integrin αvβ3 from human placenta, ranking in words only
Procedure: Integrin αvβ3 antagonists were identified and assessed using a test system based on competition between the natural integrin αvβ3 ligand vitronectin and the test substance for binding to integrin αvβ3 bound to a solid phase. […]
coat microtiter plates with 250 ng/ml integrin-αvβ3 in 0.05 M NaHCO3 pH 9.2; 0.1 ml/well; […]
saturate with 1% milk powder/assay buffer; 0.3 ml/well; 0.5 h/RT wash 3× with 0.05% Tween 20/assay buffer
Test substance in 0.1% milk powder/assay buffer, 50 μl/well+0 μg/ml or 2 μg/ml human vitronectin (Boehringer Ingelheim T007) in 0.1% milk powder/assay buffer, 50 μl/well; 1 h/RT […]
1 μg/ml anti human vitronectin antibody coupled to peroxidase (Kordia SAVN-APHRP) in 0.1%: milk powder/assay buffer; 0.1 ml/well; 1 h/RT […]
0.1 ml/well peroxidase substrate […]
stop reaction with 0.1 ml/well 2 M H2SO4 […]
measure the absorption at 450 nm
Integrin αvβ3: human placenta is solubilized with Nonidet, and integrin αvβ3 is affinity-purified on a GRGDSPK matrix (elution with EDTA). Contamination by integrin αIIbβ3 and human serum albumin, as well as the detergent and EDTA, are removed by anion exchange chromatography.
Assay buffer: 50 mM tris pH 7.5; 100 mM NaCl; 1 mM CaCl2; 1 mM MgCl2; 10 ΞM MnCl2 […]
Peroxidase substrate: mix 0.1 ml of TMB solution (42 mM TMB In DMSO) and 10 ml of substrate buffer (0.1 M Na acetate pH 4.9) and then add 14.7 pi of 3% H2O2. […]

IC50 values (concentration of the ligand at which 50% of the ligand is displaced): best result
Structure (SMILES): Cc1cn(CC(Cc2ccc3ccccc3c2)C(=O)O)c(=O)nc1N1CCC(Nc2nc3ccccc3[nH]2)CC1.O=C(O)C(F)(F)F (stereo not shown) [Compound I, 2-[(1-{1-[2-Carboxy-3-(2-naphthyl)propyl]-5-methyl-2-oxo-1,2-dihydropyrimidin-4-yl)-piperidin-4-yl)amino]-1H-benzimidazol-1-ium trifluoroacetate]
